Data from ChEMBL document CHEMBL1144396 (J Med Chem, 2005).

Target: T1, Equilibrative nucleoside transporter 1 (Homo sapiens, UniProt Q99808)
T1 sequence (Q99808 whole entry): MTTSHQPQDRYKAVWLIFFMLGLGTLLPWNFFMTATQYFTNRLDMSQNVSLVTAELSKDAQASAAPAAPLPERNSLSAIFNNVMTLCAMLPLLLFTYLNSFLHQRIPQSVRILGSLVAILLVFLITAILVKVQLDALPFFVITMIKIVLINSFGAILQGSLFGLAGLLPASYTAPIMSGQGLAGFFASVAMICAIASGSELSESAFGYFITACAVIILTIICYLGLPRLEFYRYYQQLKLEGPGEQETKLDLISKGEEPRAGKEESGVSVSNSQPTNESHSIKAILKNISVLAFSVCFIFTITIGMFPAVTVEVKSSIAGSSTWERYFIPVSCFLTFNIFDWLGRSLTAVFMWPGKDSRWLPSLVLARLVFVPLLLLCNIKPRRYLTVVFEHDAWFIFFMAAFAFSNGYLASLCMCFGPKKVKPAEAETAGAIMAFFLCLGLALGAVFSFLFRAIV
Assay: Inhibition of [3H]NBTI binding to equilibrative nucleoside transport protein 1 (ENT1) in human erythrocyte membranes
Type: cell membranes

Row | Ki | Inhibition | SMILES
1 | 97 nM |  | CCCNc1nc2c(NC3CCCC3)ncnc2n1[C@@H]1O[C@H](CO)[C@@H](O)[C@H]1O
2 | 1520 nM |  | O=[N+]([O-])c1ccc(CSc2ncnc3c2nc(N2CCCC2)n3Cc2ccccc2)cc1
3 | 51 nM |  | O=[N+]([O-])c1ccc(CSc2ncnc3c2nc(N2CCOCC2)n3Cc2ccccc2)cc1
4 | 3 nM |  | OC[C@H]1OC(n2c(NC3CC3)nc3c(SCc4ccccc4)ncnc32)[C@H](O)[C@@H]1O (stereo partly drawn)
5 | 5.4 nM |  | CCCCNc1nc2c(SCc3ccccc3)ncnc2n1C1O[C@H](CO)[C@@H](O)[C@H]1O (stereo partly drawn)
6 | 0.94 nM |  | OC[C@H]1OC(n2c(NC3CCCCC3)nc3c(SCc4ccccc4)ncnc32)[C@H](O)[C@@H]1O (stereo partly drawn)
7 | 744 nM |  | OC[C@H]1OC(n2c(N3CCCCC3)nc3c(SCc4ccccc4)ncnc32)[C@H](O)[C@@H]1O (stereo partly drawn)
8 | 410 nM |  | OC[C@H]1OC(n2c(N3CCCC3)nc3c(SCc4ccccc4)ncnc32)[C@H](O)[C@@H]1O (stereo partly drawn)
9 | 9.5 nM |  | CCNc1nc2c(SCc3ccccc3)ncnc2n1C1O[C@H](CO)[C@@H](O)[C@H]1O (stereo partly drawn)
10 | 5.3 nM |  | CCCNc1nc2c(SCc3ccccc3)ncnc2n1C1O[C@H](CO)[C@@H](O)[C@H]1O (stereo partly drawn)
11 | 28 nM |  | CNc1nc2c(SCc3ccccc3)ncnc2n1C1O[C@H](CO)[C@@H](O)[C@H]1O (stereo partly drawn)
12 | 2.3 nM |  | CCCCCNc1nc2c(SCc3ccccc3)ncnc2n1C1O[C@H](CO)[C@@H](O)[C@H]1O (stereo partly drawn)
13 | 0.64 nM |  | OC[C@H]1OC(n2c(NC3CCCC3)nc3c(SCc4ccccc4)ncnc32)[C@H](O)[C@@H]1O (stereo partly drawn)
14 | 3.7 nM |  | CCCCCCNc1nc2c(SCc3ccccc3)ncnc2n1C1O[C@H](CO)[C@@H](O)[C@H]1O (stereo partly drawn)
15 | 3.6 nM |  | CCC(C)CNc1nc2c(SCc3ccccc3)ncnc2n1C1O[C@H](CO)[C@@H](O)[C@H]1O (stereo partly drawn)
16 |  | 33% | OC[C@H]1OC(n2c(N3CCOCC3)nc3c(SCc4ccccc4)ncnc32)[C@H](O)[C@@H]1O (stereo partly drawn)
17 | 53 nM |  | OC[C@H]1O[C@@H](n2cnc3c(SCc4ccccc4)ncnc32)[C@H](O)[C@@H]1O [6-BENZYLTHIOINOSINE]
18 | 1100 nM |  | OC[C@H]1O[C@@H](n2cnc3c(NC4CCCC4)ncnc32)[C@H](O)[C@@H]1O [N6-CYCLOPENTYLADENOSINE]
